Results as given in patent publication US10266548B2, “Substituted benzylindazoles for use as Bub1 kinase inhibitors in the treatment of hyperproliferative diseases” (Bayer Intellectual Property GmbH, priority 2011, dated 2019).
Structures can show the parent of a compound that is named as a salt. Where two headings read alike, the source gives them in different places.

Experiments:
[1] = molecular target: catalytic domain of human Bub1 (amino acids 704-1085) (Homo sapiens (Human), UniProt O43683); assay: Bub1 kinase assay (TR-FRET); assay type: biochemical; conditions: 10 μM ATP, 1 μM peptide substrate; read-out: Biological Assay 1: Bub1 kinase assay median IC50
Method in brief: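 Phosphoserine product detected by TR-FRET (Eu-labeled anti-mouse IgG/anti-phosphoserine antibody to streptavidin-XL665) after 1 h at 22 °C. IC50 from 4-parameter logistic fit.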

[2] = system: HeLa cells; assay: Proliferation assay (HeLa cell line); assay type: cell-based; conditions: read-out: Biological Assay 2: Proliferation assay (HeLa cell line) median IC50
[3] = Homo sapiens, 96 h, 4 days, crystal violet

IC50 [1]	IC50 [2, 3]	IC50 ([2]; 4 days, crystal violet)	Structure (SMILES)	IC50 ([2]; Homo sapiens, 96 h)
0.016 µM	1.4 µM		COc1cnc(-c2nn(Cc3c(F)cc(Br)cc3OCC(F)(F)F)c3ccccc23)nc1Nc1ccncc1 [Example 18-1, 2-{1-[4-bromo-2-fluoro-6-(2,2,2-trifluoroethoxy)benzyl]-1H-indazol-3-yl}-5-methoxy-N-(pyridin-4-yl)pyrimidin-4-amine]	
2.8 µM		3.5 µM	COc1cnc(-c2nn(Cc3c(OCC(F)(F)F)cc(Br)cc3OCC(F)(F)F)c3ccccc23)nc1Nc1ccncc1 [Example 18-2]	
0.0063 µM		≥ 10 µM	CCOc1cc(F)c(Cn2nc(-c3ncc(OCC(=O)O)c(Nc4ccncc4)n3)c3ccccc32)c(F)c1 [Example 19-2]	
0.04 µM	3.3 µM		COc1cnc(-c2nn(Cc3c(Cl)ccc(C(N)=O)c3Cl)c3ccccc23)nc1Nc1ccncc1 [Example 20-2, 2,4-dichloro-3-({3-[5-methoxy-4-(pyridin-4-yla-mino)pyrimidin-2-yl]-1H-indazol-1-yl}methyl) benzamide]	
0.75 µM	≥ 10 µM		COc1cnc(-c2nn(Cc3c(Cl)ccc(C(=O)NCCO)c3Cl)c3ccccc23)nc1Nc1ccncc1 [Example 20-4, 2,4-dichloro-N-(2-hydroxyethyl)-3-({3-[5-methoxy-4-(pyridin-4-yla-mino)pyrimidin-2-yl]-1H-indazol-1-yl}methyl) benzamide]	
8.8 µM	5.9 µM		COc1cnc(-c2nn(Cc3c(Cl)ccc(C(=O)N4CCOCC4)c3Cl)c3ccccc23)nc1Nc1ccncc1 [Example 20-5, [2,4-dichloro-3-({3-[5-methoxy-4-(pyridin-4-yla-mino)pyrimidin-2-yl]-1H-indazol-1-yl}methyl)phenyl] (morpholin-4-yl)methanone]	
0.028 µM	3.8 µM		C#Cc1ccc(Cn2nc(-c3ncc(OC)c(Nc4ccncc4)n3)c3ccccc32)c(F)c1 [Example 21-1, 2-[1-(4-ethynyl-2-fluorobenzyl)-1H-indazol-3-yl]-5-methoxy-N-(pyridin-4-yl)pyrimidin-4-amine]	
1.4 µM	≥ 10 µM		COc1cnc(-c2nn(Cc3ccccc3F)c3ccccc23)nc1N(C)c1ccncc1 [Example 23-1, 2-[1-(2-fluorobenzyl)-1H-indazol-3-yl]-5-methoxy-N-methyl-N-(pyridin-4-yl)pyrimidin-4-amine]	
0.062 µM	≥ 10 µM		COc1cnc(-c2nn(Cc3ccccc3F)c3ccccc23)nc1Nc1ccncc1C#N [Example 24-1, 4-({2-[1-(2-fluorobenzyl)-1H-indazol-3-yl]-5-methoxypyrimidin-4-yl}amino)pyridine-3-carbonitrile]	
0.013 µM	≥ 10 µM		COc1cnc(-c2nn(Cc3ccccc3F)c3ccccc23)nc1Nc1ccncc1C(N)=O [Example 25-1, 4-({2-[1-(2-fluorobenzyl)-1H-indazol-3-yl]-5-methoxypyrimidin-4-yl}amino)pyridine-3-carboxamide]	
0.0054 µM		≥ 10 µM	CCCc1ccc(Cn2nc(-c3ncc(OC)c(Nc4ccncc4C(N)=O)n3)c3ccccc32)cc1 [Example 25-2]	
0.0088 µM	4.4 µM		CCOc1cc(F)c(Cn2nc(-c3ncc(OC)c(Nc4ccncc4C(N)=O)n3)c3ccccc32)c(F)c1 [Example 25-3, 4-({2-[1-(4-ethoxy-2,6-difluorobenzyl)-1H-indazol-3-yl]-5-methoxypyrimidin-4-yl}amino)pyridine-3-carboxamide]	
0.00503 µM		10 µM	COc1cnc(-c2nn(Cc3c(F)cc(O)cc3F)c3ccccc23)nc1Nc1ccncc1C(N)=O [Example 25-4]	
0.017 µM	9.2 µM		N#Cc1cnccc1Nc1nc(-c2nn(Cc3ccccc3F)c3ccccc23)ncc1O [Example 26-1, 4-({2-[1-(2-fluorobenzyl)-1H-indazol-3-yl]-5-hydroxypyrimidin-4-yl}amino)pyridine-3-carbonitrile]	
0.011 µM	≥ 10 µM		CNC(=O)c1ccc(Cn2nc(-c3ncc(OC)c(Nc4ccncc4)n3)c3ccccc32)c(Cl)c1 [Example 29-1, formic acid-3-chloro-4-({3-[5-methoxy-4-(pyridin-4-ylamino)pyrimidin-2-yl]-1H-indazol-1-yl}methyl)-N-methylbenzamide (1:1)]	
0.0089 µM		≥ 10 µM	CNC(=O)c1ccc(Cn2nc(-c3ncc(OC)c(Nc4ccncc4)n3)c3ccccc32)c(Cl)c1 [Example 29-2, 3-chloro-4-({3-[5-methoxy-4-(pyridin-4-ylamino)pyrimidin-2-yl]-1H-indazol-1-yl}methyl)-N-methylbenzamide]	
0.017 µM	≥ 10 µM		NC(=O)c1cnccc1Nc1nc(-c2nn(Cc3ccccc3F)c3ccccc23)ncc1O [Example 30-1, 4-({2-[1-(2-fluorobenzyl)-1H-indazol-3-yl]-5-hydroxypyrimidin-4-yl}amino)pyridine-3-carboxamide]	
0.02 µM	≥ 10 µM		O=C(O)c1cnccc1Nc1nc(-c2nn(Cc3ccccc3F)c3ccccc23)ncc1O [Example 30-2, 4-({2-[1-(2-fluorobenzyl)-1H-indazol-3-yl]-5-hydroxypyrimidin-4-yl}amino)pyridine-3-carboxylic acid]	
0.0084 µM	≥ 10 µM		CCOC(=O)c1cnccc1Nc1nc(-c2nn(Cc3ccccc3F)c3ccccc23)ncc1O [Example 30-3, ethyl 4-({2-[1-(2-fluorobenzyl)-1H-indazol-3-yl]-5-hydroxypyrimidin-4-yl}amino)pyridine-3-carboxylate]	
0.67 µM		≥ 10 µM	CCOc1cc(F)c(Cn2nc(-c3ncc(OC)c(Nc4c(F)cncc4F)n3)c3ccccc32)c(F)c1 [Example 39-2]	
0.0067 µM	3.6 µM		CCOc1cc(F)c(Cn2nc(-c3ncc(OC)c(Nc4ccncc4)n3)c3c(C)cccc32)c(F)c1 [Example 42-1, 2-[1-(4-ethoxy-2,6-difluorobenzyl)-4-methyl-1H-indazol-3-yl]-5-methoxy-N-(pyridin-4-yl)pyrimidin-4-amine]	

Structure (SMILES)	IC50 [1]	IC50 [2, 3]	IC50 ([2]; 4 days, crystal violet)	IC50 ([2]; Homo sapiens, 96 h)
COc1cnc(-c2nn(Cc3c(Cl)ccc(C(=O)N(C)C)c3Cl)c3ccccc23)nc1Nc1ccncc1 [Example 20-3, 2,4-dichloro-3-({3-[5-methoxy-4-(pyridin-4-yla-mino)pyrimidin-2-yl]-1H-indazol-1-yl}methyl)-N,N-dimethyl-benzamide]	1.2 µM			4.1 µM
COc1cnc(-c2nn(Cc3ccccc3F)c3ccccc23)nc1Nc1ccncc1 [Example 24-3, 2-[1-(2-fluorobenzyl)-1H-indazol-3-yl]-5-methoxy-N-(pyridin-4-yl)pyrimidin-4-amine]	0.013 µM			9.3 µM
COc1ccc(Cn2nc(-c3ncc(OC)c(Nc4cc[nH]c(=O)c4)n3)c3ccccc32)cc1 [Example 24-7, 4-({5-methoxy-2-[1-(4-methoxybenzyl)-1H-indazol-3-yl]pyrimidin-4-yl}amino)pyridin-2(1H)-one]	1.2 µM			10 µM
CCOc1cc(F)c(Cn2nc(-c3ncc(OC)c(Nc4cc[nH]c(=O)c4)n3)c3ccccc32)c(F)c1 [Example 24-8, 4-({2-[1-(4-ethoxy-2,6-difluorobenzyl)-1H-indazol-3-yl]-5-methoxypyrimidin-4-yl}amino)pyridin-2(1H)-one]	0.026 µM			10 µM
COc1ccc(Cn2nc(-c3ncc(OC)c(Nc4ccncc4C(F)(F)F)n3)c3ccccc32)cc1 [Example 27-1, 5-methoxy-2-[1-(4-methoxybenzyl)-1H-indazol-3-yl]-N-[3-(trifluoromethyl)pyridin-4-yl]pyrimidin-4-amine]	0.055 µM			3.9 µM
NC(=O)c1cnc(-c2nn(Cc3ccccc3F)c3ccccc23)nc1Nc1ccncc1 [Example 32-1, 2-[1-(2-fluorobenzyl)-1H-indazol-3-yl]-4-(pyridin-4-ylamino)pyrimidine-5-carboxamide]	0.12 µM			≥ 10 µM
O=C(O)c1cnccc1Nc1nc(-c2nn(Cc3ccccc3F)c3ccccc23)ncc1OCCO [Example 33-1, 4-({2-[1-(2-fluorobenzyl)-1H-indazol-3-yl]-5-(2-hydroxyethoxy)pyrimidin-4-yl}amino)pyridine-3-carboxylic acid hydrochloride (1:1)]	0.011 µM			≥ 10 µM
COc1ccc(Cn2nc(-c3ncc(OC)c(Nc4ccnc(F)c4)n3)c3ccccc32)cc1 [Example 34-1, N-(2-fluoropyridin-4-yl)-5-methoxy-2-[1-(4-methoxybenzyl)-1H-indazol-3-yl]pyrimidin-4-amine]	0.23 µM			≥ 10 µM
COc1ccc(Cn2nc(-c3ncc(OC)c(Nc4cc(F)nc(F)c4)n3)c3ccccc32)cc1 [Example 34-2, N-(2,6-difluoropyridin-4-yl)-5-methoxy-2-[1-(4-methoxybenzyl)-1H-indazol-3-yl]pyrimidin-4-amine]	6.2 µM			≥ 10 µM
COc1ccc(Cn2nc(-c3ncc(OC)c(Nc4ccncc4F)n3)c3ccccc32)cc1 [Example 34-3, N-(3-fluoropyridin-4-yl)-5-methoxy-2-[1-(4-methoxybenzyl)-1H-indazol-3-yl]pyrimidin-4-amine]	0.028 µM			8.7 µM
CCOc1cc(F)c(Cn2nc(-c3ncc(OCCS(C)(=O)=O)c(Nc4ccncc4)n3)c3ccccc32)c(F)c1 [Example 37-1, 2-[1-(4-ethoxy-2,6-difluorobenzyl)-1H-indazol-3-yl]-5-[2-(methylsulfonyl)ethoxy]-N-(pyridin-4-yl)pyrimidin-4-amine]	0.0057 µM	4.2 µM		
